Patent US7598293B2, “Compounds and their use in medicine, process for their preparation and pharmaceutical compositions containing them” (Dr. Reddy's Laboratories, Inc., priority 2001, dated 2009)

What was measured:
Swiss albino mice = experiment: Plasma triglyceride and total cholesterol lowering activity in Swiss albino mice; type: in vivo, mouse; details: results after 6 days
Experimental: c) Plasma triglyceride and total cholesterol lowering activity in Swiss albino mice Male Swiss albino mice (SAM) were obtained from NIN and housed in DRF animal house. All these animals are maintained under 12 hour light and dark cycle at 25±1° C. Animals are given standard laboratory chow (NIN, Hyderabad, India) and water, ad libitum. SAM of 20-25 g body weight range and Guinea pigs of 500-700 g body weight range are used (Oliver, P., Plancke, M. O., Marzin, D., Clavey, V., Sauzieres, J and Fruchart, J. C. Effects of fenofibrate, gemfibrozil and nicotinic acid on plasma lipoprotein levels in normal and hyperlipidemic mice. Atherosclerosis. 1988. 70: 107-114).
The test compounds can be administered orally to Swiss albino mice at 0.3 to 30 mg/kg/day dose for 6 days. Control mice are treated with vehicle (0.25% Carboxymethylcellulose; dose 10 ml/kg). The test compounds are administered orally to Guinea pigs at 0.3 to 30 mg/kg/day dose for 6 days. Control animals are treated with vehicle (0.25% Carboxymethylcellulose; dose 5 ml/kg). The blood samples can bc collected in fed state 1 hour after drug administration on 0 and 6 day of treatment. The blood can be collected from the retro-orbital sinus through heparinised capillary in EDTA containing tubes. After centrifugation, plasma sample was separated for triglyceride (Wieland, O. Methods of Enzymatic analysis. Bergermeyer, H. O., Ed., 1963. 211-214; Trinder, P. Ann. Clin. Biochem. 1969. 6: 24-27). Measurement of plasma triglyceride is done using commercial kits (Dr. Reddy's Diagnostic Division, Hyderabad, India).
(§1) 1. Percent reduction in Blood sugar/triglycerides/total cholesterol will be calculated according to the formula:
(§2) [formula] • OC=Zero day control group value • OT=Zero day treated group value • TC=Test day control group value • TT=Test day treated group value

C57BL/KsJ-db/db mice = experiment: Efficacy in genetic models: blood sugar and triglyceride lowering in db/db mice; type: in vivo, mouse; details: 3 mg/kg oral, results after 6 days
From the text: a) Efficacy in Genetic Models Mutation in colonies of laboratory animals and different sensitivities to dietary regimens has made the development of animal models with non-insulin dependent diabetes and hyperlipidemia associated with obesity and insulin resistance possible. Genetic models such as db/db and ob/ob (Diabetes, (1982) 31(1): 1-6) mice and zucker fa/fa rats have been developed by the various laboratories for understanding the pathophysiology of disease and testing the efficacy of new antidiabetic compounds (Diabetes, (1983) 32: 830-838; Annu. Rep. Sankyo Res. Lab. (1994). 46: 1-57). The homozygous animals, C57 BL/KsJ-db/db mice developed by Jackson Laboratory, US, are obese, hyperglycemic, hyperinsulinemic and insulin resistant (J. Clin. Invest., (1990) 85: 962-967), whereas heterozygous are lean and normoglycemic. In db/db model, mouse progressively develops insulinopenia with age, a feature commonly observed in late stages of human type II diabetes when blood sugar levels are insufficiently controlled. The state of pancreas and its course vary according to the models. Since this model resembles that of type II diabetes mellitus, the compounds of the present invention will be tested for blood sugar and triglycerides lowering activities.
Male C57BL/KsJ-db/db mice of 8 to 14 weeks age, having body weight range of 35 to 60 grams, bred at Dr. Reddy's Research Foundation (DRF) animal house, were used in the experiment. The mice are provided with standard feed (National Institute of Nutrition (NIN), Hyderabad, India) and acidified water, ad libitum. The animals having more than 350 mg/dl blood sugar will be used for testing. The number of animals in each group will be 4.
Test compounds are suspended on 0.25% carboxymethyl cellulose and administered to test group at a dose of 0.1 mg to 30 mg/kg through oral gavage daily for 6 days. The control group receives vehicle (dose 10 ml/kg). On 6th day the blood samples will be collected one hour after administration of test compounds/vehicle for assessing the biological activity.
The random blood sugar and triglyceride levels can be measured by collecting blood (100 μl) through orbital sinus, using heparinised capillary in tubes containing EDTA which was centrifuged to obtain plasma. The plasma glucose and triglyceride levels can be measured spectrometrically, by glucose oxidase and glycerol-3-PO4 oxidase/peroxidase enzyme (Dr. Reddy's Lab. Diagnostic Division Kits, Hyderabad, India) methods respectively.
The blood sugar and triglycerides lowering activities of the test compound are calculated according to the formula.
as §1, §2

[1] = tested on: cholesterol fed Syrian Hamsters; experiment: Body weight reducing effect in cholesterol fed hamsters; type: in vivo, hamster; details: 3 mg/kg oral
Experimental: d) Body weight reducing effect in cholesterol fed hamsters: Male Syrian Hamsters are procured from NIN, Hyderabad, India. Animals are housed at DRF animal house under 12 hour light and dark cycle at 25±1° C. with free access to food and water. Animals are maintained with 1% cholesterol containing standard laboratory chow (NIN) from the day of treatment.
The test compounds can be administered orally at 1 to 30 mg/kg/day dose for 15 days. Control group animals are treated with vehicle (Mill Q water, dose 10 ml/kg/day). Body weights are measured on every 3rd day.
as §1, §2

2-Ethoxy-3-[4-(4-methanesulfonyloxybenzylamino)phenyl]propionic acid arginine salt [Example 38]
Triglyceride Lowering (%) (Swiss albino mice; 1 mg/kg oral): 41%

CCOC(Cc1ccc(NC(=O)OCCCc2ccc(OS(C)(=O)=O)cc2)cc1)C(=O)O (centres unmarked) [Example 16, 2-Ethoxy-3-[4-{3-(4-methanesulfonyloxyphenyl)propyloxycarbonylamino}phenyl]propionic acid]
Reduction in Blood Glucose Level (%) (C57BL/KsJ-db/db mice): 15%
Triglyceride Lowering (%) (C57BL/KsJ-db/db mice): 39%
Reduction in Body weight (%) [1]: 19%
Reduction in Total Cholesterol (%) [1]: 63%
Reduction in Triglyceride (%) [1]: 77%

CCOC(Cc1ccc(NCCCc2ccc(OS(=O)(=O)c3ccc(C)cc3)cc2)cc1)C(=O)O (centres unmarked) [Example 19, 2-ethoxy-3-[4-{3-(4-(toluene-4-sulfonyloxy)phenyl)propylamino}phenyl]propionate]
Triglyceride Lowering (%) (Swiss albino mice; 1 mg/kg oral): 39%

CCOC(Cc1ccc(NCCCc2ccc(N(C(=O)OC(C)(C)C)S(C)(=O)=O)cc2)cc1)C(=O)O (centres unmarked) [Example 30]
Triglyceride Lowering (%) (Swiss albino mice; 3 mg/kg oral): 41%
